Measured values published in paper PMC9203742 (Nature Communications, 2022).
“And” between values parts separate entries of the source, which are not always exact repeats. Equal entries are not always repeated. Starred links: 1 amine or outer side, 2 acyl side, 3 side chain; linkers in the order of their positions; H or OH if unused. Positions of bridges follow the written chain, without caps; N, C: chain ends. Non-standard residues stand in square brackets, D forms with d. Residues, ends and D or L forms follow the SMILES beside them. X1 = CC(=O)NC(C(=O)OC(C(C)C)C(N[*:1])C(=O)[*:2])C(O)C(C)C; PhLac = O=C(O)[CH](O)Cc1ccccc1; NMeT = CN[CH](C(=O)O)[CH](C)O; NMeA = CN[CH](C)C(=O)O; NMeDha = C=C(NC)C(=O)O

Key:
mGlu1 P58H/N264H mutant = biological target: T1, mGlu1 P58H/N264H mutant (Rattus norvegicus, UniProt P23385, N264H/P58H); assay: Fura-2 Ca2+ imaging in HEK293 cells expressing mGlu1 P58H/N264H; assay type: cell-based; settings: for Receptor activation ([Ca2+]i change, Δratio): 10 μM metal ion or metal complex; for Δratio of 3 µM Pd(bpy)-induced response, ave / Δratio of 10 µM glutamate-induced response, ave: n = 20
T1 construct: expressed in transfected cells; host or cells: HEK293
T1 sequence (P23385 19-1199 P58H/N264H): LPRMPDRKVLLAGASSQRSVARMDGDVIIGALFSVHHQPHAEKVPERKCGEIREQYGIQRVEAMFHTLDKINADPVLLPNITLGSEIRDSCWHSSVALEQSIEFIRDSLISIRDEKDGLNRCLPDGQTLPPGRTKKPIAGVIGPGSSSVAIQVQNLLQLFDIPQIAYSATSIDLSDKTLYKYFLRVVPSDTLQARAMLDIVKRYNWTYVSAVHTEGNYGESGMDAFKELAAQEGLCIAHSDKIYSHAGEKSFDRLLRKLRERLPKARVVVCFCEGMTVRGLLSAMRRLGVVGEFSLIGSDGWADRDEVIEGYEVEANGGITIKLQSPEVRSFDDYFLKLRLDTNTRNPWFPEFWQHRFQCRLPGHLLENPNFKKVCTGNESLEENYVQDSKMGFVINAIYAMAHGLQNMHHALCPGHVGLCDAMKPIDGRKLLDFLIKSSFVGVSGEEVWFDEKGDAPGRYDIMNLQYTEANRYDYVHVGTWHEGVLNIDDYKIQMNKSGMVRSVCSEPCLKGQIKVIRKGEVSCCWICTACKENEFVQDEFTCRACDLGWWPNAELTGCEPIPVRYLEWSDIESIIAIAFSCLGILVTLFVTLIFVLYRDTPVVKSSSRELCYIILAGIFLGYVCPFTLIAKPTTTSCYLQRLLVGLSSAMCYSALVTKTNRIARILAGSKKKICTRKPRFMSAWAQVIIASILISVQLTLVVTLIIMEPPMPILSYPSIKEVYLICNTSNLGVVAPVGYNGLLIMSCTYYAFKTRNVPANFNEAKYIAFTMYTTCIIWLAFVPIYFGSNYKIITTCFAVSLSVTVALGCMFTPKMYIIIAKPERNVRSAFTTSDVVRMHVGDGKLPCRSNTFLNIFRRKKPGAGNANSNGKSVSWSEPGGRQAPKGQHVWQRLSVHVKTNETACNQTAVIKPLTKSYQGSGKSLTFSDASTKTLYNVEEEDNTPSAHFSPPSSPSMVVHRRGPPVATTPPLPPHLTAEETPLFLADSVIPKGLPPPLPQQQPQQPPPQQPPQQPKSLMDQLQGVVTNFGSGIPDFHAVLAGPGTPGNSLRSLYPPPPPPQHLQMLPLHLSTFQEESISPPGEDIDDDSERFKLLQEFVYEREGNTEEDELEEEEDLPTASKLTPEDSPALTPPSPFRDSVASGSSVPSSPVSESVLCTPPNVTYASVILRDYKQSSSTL

mGlu1 A59H/N264H mutant = biological target: T2, mGlu1 A59H/N264H mutant (Rattus norvegicus, UniProt P23385, A59H/N264H); assay: Fura-2 Ca2+ imaging in HEK293 cells expressing mGlu1 A59H/N264H; assay type: cell-based; settings: 10 μM metal ion or metal complex
T2 construct: expressed in transfected cells; host or cells: HEK293
T2 sequence (P23385 19-1199 A59H/N264H): as the sequence (P23385 19-1199 P58H/N264H) above, with H40P, A41H counted along it

mGlu1 K61H/N264H mutant = biological target: T3, mGlu1 K61H/N264H mutant (Rattus norvegicus, UniProt P23385, K61H/N264H); assay: Fura-2 Ca2+ imaging in HEK293 cells expressing mGlu1 K61H/N264H; assay type: cell-based; settings: 10 μM metal ion or metal complex
T3 construct: expressed in transfected cells; host or cells: HEK293
T3 sequence (P23385 19-1199 K61H/N264H): as the sequence (P23385 19-1199 P58H/N264H) above, with H40P, K43H counted along it

mGlu1 P57H/N264H mutant = biological target: T4, mGlu1 P57H/N264H mutant (Rattus norvegicus, UniProt P23385, N264H/P57H); assay: Fura-2 Ca2+ imaging in HEK293 cells expressing mGlu1 P57H/N264H; assay type: cell-based; settings: 10 μM metal ion or metal complex
T4 construct: expressed in transfected cells; host or cells: HEK293
T4 sequence (P23385 19-1199 P57H/N264H): as the sequence (P23385 19-1199 P58H/N264H) above, with P39H, H40P counted along it

mGlu1 E60H/N264H mutant = biological target: T5, mGlu1 E60H/N264H mutant (Rattus norvegicus, UniProt P23385, E60H/N264H); assay: Fura-2 Ca2+ imaging in HEK293 cells expressing mGlu1 E60H/N264H; assay type: cell-based; settings: 10 μM metal ion or metal complex
T5 construct: expressed in transfected cells; host or cells: HEK293
T5 sequence (P23385 19-1199 E60H/N264H): as the sequence (P23385 19-1199 P58H/N264H) above, with H40P, E42H counted along it

mGlu1(N264H) mutant = biological target: T6, mGlu1(N264H) mutant (Rattus norvegicus, UniProt P23385, N264H); assay: Fura-2 Ca2+ imaging in HEK293 cells expressing mGlu1(N264H); assay type: cell-based; settings: for Effect of pre-treated inhibitor on 10 µM Pd(bpy)-induced Ca2+ responses: 10 µM LY367385, 1 µM FITM, 10 µM YM254890 or 1 µM U73122; for Receptor activation (Ca2+ response, Δratio): 3 μM Pd(bpy) derivative; for Ca2+ response to Pd complex, individual cells #1-#20 (Fig.4e): single-cell values
T6 construct: expressed in transfected cells; host or cells: HEK293
T6 sequence (P23385 19-1199 N264H): as the sequence (P23385 19-1199 P58H/N264H) above, with H40P counted along it

primary cortical neurons = assay: Fura-2 Ca2+ imaging (abnormal Ca2+ response) in cultured cortical neurons; settings: co-treated 30 µM LY367385, 1 µM FITM or 10 µM U73122

SMILES | Receptor activation ([Ca2+]i change, Δratio) (mGlu1 P58H/N264H mutant) | Receptor activation ([Ca2+]i change, Δratio) (mGlu1 A59H/N264H mutant) | Receptor activation ([Ca2+]i change, Δratio) (mGlu1 K61H/N264H mutant) | Receptor activation ([Ca2+]i change, Δratio) (mGlu1 P57H/N264H mutant) | Receptor activation ([Ca2+]i change, Δratio) (mGlu1 E60H/N264H mutant) | Effect of pre-treated inhibitor on 10 µM Pd(bpy)-induced Ca2+ responses (mGlu1(N264H) mutant) | Receptor activation (Ca2+ response, Δratio) (mGlu1(N264H) mutant) | Ca2+ response to Pd complex, individual cells #1-#20 (Fig.4e) (mGlu1(N264H) mutant) | also measured
[Cd+2] [Cd^2+, reference compound] | failed to activate | failed to activate | failed to activate | failed to activate | failed to activate |  |  |  | 
[Cu+2] [Cu^2+, reference compound] | failed to activate | failed to activate | failed to activate | failed to activate | failed to activate |  |  |  | 
Cc1cc(C(=O)O)ccc1[C@H](N)C(=O)O [LY367385, reference compound] |  |  |  |  |  | inhibited |  |  | Effect on Pd(bpy)-induced Ca2+ responses (mGlu1 P58H/N264H mutant; 10 μM LY367385, 3 µM Pd(bpy)): inhibited; Δratio of 3 µM Pd(bpy)-induced response, ave (mGlu1 P58H/N264H mutant; [LY367385] 0.1 µM): 0.1859; Δratio of 10 µM glutamate-induced response, ave (mGlu1 P58H/N264H mutant; [LY367385] 0.1 µM): 0.243; Δratio of 3 µM Pd(bpy)-induced response, ave (mGlu1 P58H/N264H mutant; [LY367385] 0.3 µM): 0.1915; Δratio of 10 µM glutamate-induced response, ave (mGlu1 P58H/N264H mutant; [LY367385] 0.3 µM): 0.2897; Δratio of 3 µM Pd(bpy)-induced response, ave (mGlu1 P58H/N264H mutant; [LY367385] 1 µM): 0.262; Δratio of 10 µM glutamate-induced response, ave (mGlu1 P58H/N264H mutant; [LY367385] 1 µM): 0.3662; Δratio of 3 µM Pd(bpy)-induced response, ave (mGlu1 P58H/N264H mutant; [LY367385] 3 µM): 0.1837; Δratio of 10 µM glutamate-induced response, ave (mGlu1 P58H/N264H mutant; [LY367385] 3 µM): 0.2021; Δratio of 3 µM Pd(bpy)-induced response, ave (mGlu1 P58H/N264H mutant; [LY367385] 10 µM): 0.007225; Δratio of 10 µM glutamate-induced response, ave (mGlu1 P58H/N264H mutant; [LY367385] 10 µM): 0.09778; Δratio of 3 µM Pd(bpy)-induced response, ave (mGlu1 P58H/N264H mutant; [LY367385] 30 µM): 0.008008; Δratio of 10 µM glutamate-induced response, ave (mGlu1 P58H/N264H mutant; [LY367385] 30 µM): 0.0409; Δratio of 3 µM Pd(bpy)-induced response, ave (mGlu1 P58H/N264H mutant; [LY367385] 100 µM): 0.01163; Δratio of 10 µM glutamate-induced response, ave (mGlu1 P58H/N264H mutant; [LY367385] 100 µM): 0.05699; Effect on glutamate-induced Ca2+ responses (mGlu1 P58H/N264H mutant; pretreatment with LY367385, 10 µM glutamate): suppressed; Effect of inhibitor on 30 µM Pd(bpy)-induced [Ca2+]i elevation (primary cortical neurons): suppressed by neither
[Ni+2] [Ni^2+, reference compound] | failed to activate | failed to activate | failed to activate | failed to activate | failed to activate |  |  |  | 
OCCOCCOCc1ccnc(-c2cc(COCCOCCO)ccn2)c1.[Cl][Pd][Cl] [Pd(EG-bpy)] |  |  |  |  |  |  | weakened responses | -0.02498 and -0.009 and -0.01094 and -0.001385 and -0.02155 and -0.01075 and -0.019 and 0.05131 and 0.02474 and 0.01748 and 0.01646 and -0.03188 and 0.7968 and -0.03567 and 0.2621 | 
OCc1ccnc(-c2cc(CO)ccn2)c1.[Cl][Pd][Cl] [Pd(OH-bpy)] |  |  |  |  |  |  | successfully activated | 0.09363 and -0.01751 and 0.927 and 0.3494 and 0.8377 and 0.7197 and 0.003631 and 0.04434 and -0.01218 and -0.01678 and 1.414 and 0.5875 and -0.01008 and 0.646 and 0.8168 and 0.6391 and 0.4133 and 1.082 and 0.03592 and 1.1834 | Ca2+ response, concentration dependence (Fig.4f) (mGlu1(N264H) mutant; 0.01 µM Pd complex): -0.02066; Ca2+ response, concentration dependence (Fig.4f) (mGlu1(N264H) mutant; 0.03 µM Pd complex): 0.003658; Ca2+ response, concentration dependence (Fig.4f) (mGlu1(N264H) mutant; 0.1 µM Pd complex): 0.0176; Ca2+ response, concentration dependence (Fig.4f) (mGlu1(N264H) mutant; 0.3 µM Pd complex): 0.1704; Ca2+ response, concentration dependence (Fig.4f) (mGlu1(N264H) mutant; 1 µM Pd complex): 0.2068; Ca2+ response, concentration dependence (Fig.4f) (mGlu1(N264H) mutant; 3 µM Pd complex): 0.4989; Ca2+ response, concentration dependence (Fig.4f) (mGlu1(N264H) mutant; 10 µM Pd complex): 0.5148; Ca2+ response, concentration dependence (Fig.4f) (mGlu1(N264H) mutant; 30 µM Pd complex): 0.5694; EC50 (mGlu1(N264H) mutant; HEK293 cells, Fura-2, read-out: EC50, Ca2+ response (Δratio)): 1100 nM
O=S(=O)([O-])CCCOCc1ccnc(-c2cc(COCCCS(=O)(=O)[O-])ccn2)c1.[Cl][Pd][Cl].[Na+].[Na+] [Pd(di-sulfo-bpy)] |  |  |  |  |  |  | failed to activate | 0.01072 and 0.008046 and 0.01006 and 0.04502 and 0.003731 and 0.0195 and 0.007615 and 0.1169 and -0.002485 and 0.009585 and 0.3142 and 0.02231 and 0.005731 and 0.02578 and 0.01671 | 
COc1ccc2c(c1)CC[C@@H]1[C@@H]2CC[C@]2(C)[C@@H](NCCCCCCN3C(=O)C=CC3=O)CC[C@@H]12 [U73122, reference compound] |  |  |  |  |  | suppressed |  |  | Effect of inhibitor on 30 µM Pd(bpy)-induced [Ca2+]i elevation (primary cortical neurons): suppressed by neither
C=C1C(=O)NC(C)C(=O)N(C)C(C)C(=O)NC(C(OC(=O)C(NC(C)=O)C(O)C(C)C)C(C)C)C(=O)N(C)C(C(C)OC)C(=O)OC(C)C(NC(C)=O)C(=O)OC(Cc2ccccc2)C(=O)N1C (centres unmarked) [YM-254890, reference compound] (Ac-T[PhLac][NMeDha]A[NMeA][X1][NMeT](Me); ester 1-C; configuration not given here) |  |  |  |  |  | suppressed |  |  | 
[Zn+2] [Zn^2+, reference compound] | failed to activate | failed to activate | failed to activate | failed to activate | failed to activate |  |  |  | 
